Test results from US20250195488A1, “MEDICINE CONTAINING VITAMIN D DERIVATIVE OR PHARMACEUTICALLY ACCEPTABLE SALT OR SOLVATE THEREOF, USED IN COMBINATION WITH IMMUNOMODULATORY SUBSTANCE” (TEEJIN PHARMA LIMITED, priority 2022, published 2025).

Key:
[1] = Evaluation of brain penetration in mice; assay type: in vivo, mouse; conditions: C57BL/6J mice; for Concentration in brain (mean ± SD) at brain Cmax: Test 2: 0.2 mg/kg single oral dose, n=3
Procedure: The administration solution was administered orally to C57BL/6J mice (8 weeks old, male, n=3) at a single dose (1 mg/kg). Mice were euthanized at 6 points of 0.25, 0.5, 1, 2, 4, and 8 hours after administration, and plasma and brain sampling were performed. After preparing a homogenate from the collected brain using Tissue Lyser II (QIAGEN #85300), acetonitrile was added to the homogenate and the homogenate was centrifuged (12000 rpm, 5 minutes) to extract the administered test compound contained in the brain. Similarly, the plasma was subjected to addition of acetonitrile and centrifugal separation to extract the administered test compound contained in the plasma. Each extracted sample was subjected to measurement of the concentration of administered test compound using LC/MS/MS (SHIMADZU UFLC/MS/MS (8050)).
The administration solution was administered orally to C57BL/6J mice (8 weeks old, male, n=3) at a single dose (0.2 mg/kg). Mice were euthanized at 6 points of 0.25, 0.5, 1, 2, 4, and 8 hours after administration, and plasma and brain sampling were performed. After preparing a homogenate from the collected brain using Tissue Lyser II (QIAGEN #85300), acetonitrile was added to the homogenate and the homogenate was centrifuged (12000 rpm, 5 minutes) to extract the administered compound contained in the brain. Similarly, the plasma was subjected to addition of acetonitrile and centrifugal separation to extract the administered test compound contained in the plasma. Each extracted sample was subjected to measurement of the concentration of administered test compound using LC/MS/MS (SHIMADZU UFLC/MS/MS (8050)).

[2] = Evaluation of calcium increasing action in normal mice; conditions: 2 weeks; for Serum calcium conc.: C57BL/6J mice, Vehicle 8.9
Procedure: After acclimatizing C57BL/6J mice (7 weeks old, male) for 1 week, the mice were divided into groups of 5 mice based on the body weight, and administration of the compound or vehicle was started. The administration solution used was a compound (in ethanol) or ethanol diluted 100-fold with 0.1% Trion X-100 (SIGMA #X100-100 ML)/saline, and the repeated oral administration at once a day was performed. After administration of 2 weeks, euthanasia was performed by collecting all blood under general anesthesia.

[3] = tested on: mouse experimental autoimmune encephalomyelitis model; test: Combination therapy with the vitamin D derivative and an immunosuppressant (fingolimod) in mouse experimental autoimmune encephalomyelitis model; assay type: in vivo; conditions: for clinical score on the day after final administration (Day 30): oral once a day, two weeks
Procedure: Using a mouse experimental autoimmune encephalomyelitis model, we evaluated the efficacy of the vitamin D derivative of the present invention in combination with fingolimod (an immunosuppressant) approved as a therapeutic drug for multiple sclerosis.
A mouse experimental autoimmune encephalomyelitis model was generated using the Hooke Kit MOG35-55/CFA Emulsion PTX (Cosmo Bio #EK-2110). C57BL/6J mice (11 weeks old, female) were anesthetized with 2.5% isoflurane inhalation and administered 0.1 mL of MOG35-55-CFA subcutaneously to the back and base of the tail, and then two hours later, administered 0.1 mL of pertussis toxin (PTX) intraperitoneally for the initial immunization. One day after the first immunization, 0.1 mL of PTX was administered intraperitoneally again. After the first immunization, clinical scores were measured once a day based on the following criteria. • 0 No abnormality • 0.5 Decrease in tension at the tip of the tail • 1.0 Limp tail • 1.5 Limp tail, and weakness of one hind limb • 2.0 Limp tail, and weakness of both hind limbs with abnormal gait • 2.5 Limp tail, and partial paralysis of one hind limb or abnormal righting reflex • 3.0 Limp tail, and partial paralysis of both hind limbs • 3.5 Limp tail, and paralysis of one hind limb • 4.0 Limp tail, and paralyses of both hind limbs • 4.5 Limp tail, paralyses of both hind legs, and weakness of one forelimb • 5.0 Limp tail, paralyses of both hind limbs, and weakness of both forelimbs (moribund)
Sixteen days after the first immunization, the disease-induced groups were divided into six groups of eight mice each based on the clinical scores, and administration of the compound (D023 6 g/kg) or vehicle was started. […] Two weeks after administration, the mice were euthanized and their spinal cords and whole blood were collected. The intact group indicates a non-treated group.

[4] = tested on: rat oligodendrocyte progenitor cells; test: Promotive activity of rat oligodendrocyte progenitor cell differentiation-1 (MBP gene expression, mRNA); assay type: cell-based; conditions: 96 h, read-out: promotive activity at T3 base (MBP gene expression; DMSO 0%, T3 100%)
Procedure: Regarding vitamin D derivatives, which was confirmed to act on the vitamin D receptor (VDR) in Example 352, the promotive activity of oligodendrocyte progenitor cell (OPC) differentiation was evaluated by MBP gene expression (mRNA).
A forebrain obtained from SD rat (Charles River Japan, 1 day old) was crushed with 70 μm Cell Strainer (Falcon #352350), and a cell suspension was prepared by collecting the cells in oligodendrocyte progenitor cell separation medium (20% FBS/2 mM Glutamax (Gibco #35050-061)/i mM sodium pyruvate (Gibco #11360-070)/1% penicillin-streptomycin (Invitrogen #15140-122)/DMEM (Gibco #11960-044)). The cell suspension was seeded in a poly-D-lysine coated T75 flask (Thermo Fisher Scientific #132704) and cultured for about 2 weeks. After culturing, the flask was shaken using a rotary shaker ([…] #WB-101SRC) for about 1 hour (37° C., 100 rpm), and the supernatant was discarded to remove microglia. Subsequently, oligodendrocyte progenitor cell separation medium was added to the flask, and the mixture was similarly shaken for about 22 hours (37° C., 200 rpm), and the supernatant was collected to prepare oligodendrocyte progenitor cells. […]

[5] = compound D023 + fingolimod 0.1 mg/kg (Combination L) vs single group of fingolimod 0.1 mg/kg
[6] = compound D023 + fingolimod 1.0 mg/kg (Combination H) vs single group of fingolimod 1.0 mg/kg

Structure (SMILES)	Concentration in brain (mean ± SD) at brain Cmax [1] [pmol/g]	Calcium conc. Fluctuation range ([2]; 20 μg/kg oral once a day) [mg/dL]	Serum calcium conc. ([2]; 20 μg/kg oral once a day) [mg/dL]	Calcium conc. Fluctuation range ([2]; 60 μg/kg oral once a day) [mg/dL]	Serum calcium conc. ([2]; 60 μg/kg oral once a day) [mg/dL]	Calcium conc. Fluctuation range ([2]; 200 μg/kg oral once a day) [mg/dL]	Serum calcium conc. ([2]; 200 μg/kg oral once a day) [mg/dL]	other results
C[C@H](CN1CCOC2(CC2)C1)[C@H]1CC[C@H]2/C(=C/C=C3C[C@@H](O)C[C@H](O)C3)CCC[C@]12C [Compound D019, (1R,3R)-5-(2-((1R,3aS,7aR,E)-1-((S)-1-(4-oxa-7-azaspiro[2.5]octan-7-yl)propan-2-yl)-7a-methyloctahydro-4H-inden-4-ylidene)ethylidene)cyclohexane-1,3-diol]								Concentration ratio in brain/in blood at brain Cmax ([1]; Test 1: 1 mg/kg single oral dose): 2.89
C[C@H](CN1CCOC[C@@H]1C)[C@H]1CC[C@H]2/C(=C/C=C3C[C@@H](O)C[C@H](O)C3)CCC[C@]12C [Compound G004, (1R,3R)-5-(2-((1R,3aS,7aR,E)-7a-methyl-1-((S)-1-((S)-3-methylmorpholino)propan-2-yl)octahydro-4H-inden-4-ylidene)ethylidene)cyclohexane-1,3-diol]	171.2 ± 37.4	0	8.9	-0.1	8.8	0.1	9.0	
C[C@H](CCN1CCOCC1)[C@H]1CC[C@H]2/C(=C/C=C3C[C@@H](O)C[C@H](O)C3)CCC[C@]12C [Compound D023, (1R,3R)-5-(2-((1R,3aS,7aR,E)-7a-methyl-1-((R)-4-morpholinobutan-2-yl)octahydro-4H-inden-4-ylidene)ethylidene)cyclohexane-1,3-diol]								blood lymphocyte count on the day after final administration (Day 30) [3, 5]: no significant difference; clinical score on the day after final administration (Day 30) [3, 5]: significantly lower clinical score; blood lymphocyte count on the day after final administration (Day 30) [3, 6]: neither was there a significant difference; clinical score on the day after final administration (Day 30) [3, 6]: significantly lower clinical score
COC1(C)CCCN(C[C@@H](C)[C@H]2CC[C@H]3/C(=C/C=C4C[C@@H](O)C[C@H](O)C4)CCC[C@]23C)C1 (stereo partly drawn) [Compound C045b, (1R,3R)-5-(2-((1R,3aS,7aR,E)-1-((2S)-1-(3-methoxy-3-methylpiperidine-1-yl)propan-2-yl)-7a-methyloctahydro-4H-inden-4-ylidene)ethylidene)cyclohexane-1,3-diol]								activation at 1 µM [4]: ≥ 20%
C[C@H](CN1CCOC[C@H]1C)[C@H]1CC[C@H]2/C(=C/C=C3C[C@@H](O)C[C@H](O)C3)CCC[C@]12C [Compound G005, (1R,3R)-5-(2-((1R,3aS,7aR,E)-7a-methyl-1-((S)-1-((R)-3-methylmorpholino)propan-2-yl)octahydro-4H-inden-4-ylidene)ethylidene)cyclohexane-1,3-diol]	140.8 ± 17.6	0.2	9.1	0.2	9.1	0.1	9.0	
C[C@H](CN1CCOCC1(C)C)[C@H]1CC[C@H]2/C(=C/C=C3C[C@@H](O)C[C@H](O)C3)CCC[C@]12C [Compound G006, (1R,3R)-5-(2-((1R,3aS,7aR,E)-1-((S)-1-(3,3-dimethylmorpholino)propan-2-yl)-7a-methyloctahydro-4H-inden-4-ylidene)ethylidene)cyclohexane-1,3-diol]	137.8 ± 11.5	0	8.9	0	8.9	-0.3	8.6	
